Where a name gives a salt, the structure may show the parent alone.
Tests used:
[1] = tested on: serum level of PTH (1-34+1-84); test: PTH measurement on intact rats (serum PTH after oral administration); type: in vivo, rats (Sprague-Dawley); conditions: intact male rats
[2] = tested on: serum level of PTH (1-34+1-84); test: Rats with chronic renal failure (5/6 nephrectomy), serum PTH after oral administration; type: in vivo, rats (Sprague-Dawley)
Procedure: II—Rats with Chronic Renal Failure • Chronic renal failure (CRF) was induced in male rats (220-250 g, Sprague-Dawley, CERJ) by ablation of ⅚ of the total renal mass. • After anaesthesia (Imalgene 1000), the rats were subjected to exeresis of the right kidney and ablation of both ends of the left kidney, representing approximately ⅔ of the organ). • The incision was cauterised by application of dry ice. […] The sera were frozen at −20° C. • After thawing, the serum level of PTH (1-34+1-84) was measured by a radioimmunology test (IRMA kit, rat, Immutopics).

[3] = Rattus norvegicus, 0.5 h, 10 mg/kg, 30 min, read-out: % PTH reduction at 30 min relative to the untreated group

| Compound | change in vivo at 10 mg/kg [2, 3] | further results |
| --- | --- | --- |
| CS(=O)(=O)c1ccc(-c2csc(NC(=O)N(CCC(c3ccccc3)c3ccccc3)CCN3CCOCC3)n2)cc1 [40 a] | – | % PTH reduction at time t, relative to the untreated group ([1]; 10 mg/kg, at 2 h): −71% at 2 h |
| COc1ccc(-c2csc(NC(=O)N(CCC(c3ccccc3)c3ccccc3)CCN3CCOCC3)n2)cc1 [51 a] | – | % PTH reduction at time t, relative to the untreated group ([1]; 10 mg/kg, at 2 h): −78% at 2 h |
| O=C(Nc1nc(-c2ccc(F)cc2)cs1)N(CCC(c1ccccc1)c1ccccc1)CCN1CCOCC1 [54 a] | – | % PTH reduction at time t, relative to the untreated group ([1]; 10 mg/kg, at 2 h): −78% at 2 h |
| O=C(Nc1nc2ccc(Cl)cc2s1)N(CCC(c1ccccc1)c1ccccc1)CCN1CCOCC1 [Example 2, 3-(6-chloro-benzothiazol-2-yl)-1-(3,3-diphenyl-propyl)-1-(2-morpholin-4-yl-ethyl)-urea dihydrochloride] | -84% | % PTH reduction at time t, relative to the untreated group ([1]; 30 mg/kg, at 30 mn): −93% at 30 mn |
| O=C(Nc1nc2ccccc2s1)N(CCC(c1ccccc1)c1ccccc1)CCN1CCOCC1 [Example 8, 3-benzothiazol-2-yl-1-(3,3-diphenyl-propyl)-1-(2-morpholin-4-yl-ethyl)-urea dihydrochloride] | -80% | % PTH reduction at 2 h relative to the untreated group ([2]; 10 mg/kg, 2 h): −90% |
| O=C(Nc1nc(-c2ccc(Cl)cc2)cs1)N(CCC(c1ccccc1)c1ccccc1)CCN1CCOCC1 [Example 25, 3-[4-(4-chloro-phenyl)-thiazol-2-yl]-1-(3,3-diphenyl-propyl)-1-(2-morpholin-4-yl-ethyl)-urea dihydrochloride] | -74% | – |
| Cc1ccc(-c2csc(NC(=O)N(CCC(c3ccccc3)c3ccccc3)CCN3CCOCC3)n2)cc1 [Example 28, 1-(3,3-diphenyl-propyl)-1-(2-morpholin-4-yl-ethyl)-3-(4-p-tolyl-thiazol-2-yl)-urea dihydrochloride] | -91% | – |
| CCOC(=O)c1cc(-c2csc(NC(=O)N(CCC(c3ccccc3)c3ccccc3)CCN3CCOCC3)n2)on1 [Example 31, 5-{2-[3-(3,3-diphenyl-propyl)-3-(2-morpholin-4-yl-ethyl)-ureido]-thiazol-4-yl}-isoxazole-3-carboxylic acid ethyl ester dihydrochloride] | -85% | – |
| O=C(Nc1nc(-c2ccc(N3CCCC3)cc2)cs1)N(CCC(c1ccccc1)c1ccccc1)CCN1CCOCC1 [Example 36, 1-(3,3-diphenyl-propyl)-1-(2-morpholin-4-yl-ethyl)-3-[4-(4-pyrrolidin-1-yl-phenyl)-thiazol-2-yl]-urea trihydrochloride] | -98% | – |
| N#Cc1ccc(-c2csc(NC(=O)N(CCC(c3ccccc3)c3ccccc3)CCN3CCOCC3)n2)cc1 [Example 44, 3-[4-(4-cyano-phenyl)-thiazol-2-yl]-1-(3,3-diphenyl-propyl)-1-(2-morpholin-4-yl-ethyl)-urea dihydrochloride] | -88% | – |
| O=C(Nc1nc(-c2cccnc2)cs1)N(CCC(c1ccccc1)c1ccccc1)CCN1CCOCC1 [Example 47, 1-(3,3-diphenyl-propyl)-1-(2-morpholin-4-yl-ethyl)-3-(4-pyridin-3-yl-thiazol-2-yl)-urea trihydrochloride] | – | change in vivo at 30 mg/kg ([2]; Rattus norvegicus, 0.5 h, 30 mg/kg, 30 min, read-out: % PTH reduction at 30 min relative to the untreated group): -96% |
| Cc1ccc(-c2csc(NC(=O)N(CCC(c3ccccc3)c3ccccc3)CCN3CCOCC3)n2)o1 [Example 60, 1-(3,3-diphenyl-propyl)-3-[4-(5-methyl-furan-2-yl)-thiazol)-2-yl]-1-(2-morpholin-4-yl-ethyl)-urea dihydrochloride] | -87% | – |

— patent US8247412B2, “Urea derivatives methods for their manufacture and uses thereof” (Galapagos Sasu, priority 2005, dated 2012)
